Patent publication US20240360179A1, “STAPLED PEPTIDES AND METHODS THEREOF” (FOG PHARMACEUTICALS, INC., priority 2021, published 2024)

Test system: COLO320DM cells
Experiment: COLO320DM proliferation assay (CellTiter-Glo)
Assay type: cell-based, human
Conditions: read-out: COLO320DM Proliferation Abs IC50
Protocol: COLO320DM proliferation assay IC50: In some embodiments, inhibition of cell proliferation by provided technologies were assessed using cell lines related to or from certain conditions, disorders or diseases. In some embodiments, cell proliferation was assessed in COLO320DM cells. In some embodiments, assessment was performed using the following procedure: On Day 1, cultured COLO320DM cells in a T75 flask were trypsinized in 3 mL of 0.250% trypsin/EDTA for 5 min and quenched with 10 mL RPMI-1640+4% HI FBS assay media. The cells were spun down at 1200 rpm for 5 min, the cell pellet collected and re-suspended at 5000 cells/mL in assay media. Using a Combi liquid handler, cells were dispensed (50 uL, 250 cells/well) into three 384 well plates. Plates were incubated at 37° C., 5% CO2 for 18-22 h. On day 2, compounds were added. A liquid handling system was used to prepare the compound dilution and dispense compound into assay plates. The compounds were serially diluted 1/2 in 90% DMSO to create a 7 point dose curve. From compound plate, 100 nL of compound were dispensed directly into wells of the assay plates to create a dose curve starting at 20 uM and ending at 313 nM. Assay plates were incubated at 37° C., 5% CO2 for 96 h. On day 6, assay plates were removed from the incubator and allowed to sit at room temperature for 30 min. Using a liquid handler, 20 uL of CellTiter Glo reagent was added to each well. The assay plates were shaken for 2 min and allowed to sit on the bench for 10-15 minutes. The assay plates were read using the CellTiter Glo protocol on a GloMax microplate reader, and the data analyzed using GraphPad Prism. Activities of various agents, including various stapled peptides in Table E2, were confirmed.
In some embodiments, an assessment was performed as follows. On day 0, cells were seeded in cell culture media (RPMI1640, 4% FBS) in a 96-well plate at desired density, typically at 1000 cells/well. On day 1, 10 mM agent stock solution (in DMSO) was first serially diluted into DMSO at 1:2 ratio, followed by diluting with cell culture media at two times of the final concentrations. Finally, agent-containing media were introduced to cell culture wells already having the same volume of cell culture media. Cells were incubated with agents for desired days before lysed for CellTiter-Glo® Luminescent Cell Viability Assay according to the manufacture instruction (Promega, G7570). Luminescent signal was obtained from a microplate reader (GloMax, Promega). Cell viability data was expressed as % relative to DMSO control wells.
Proliferation Assay. In some embodiments, various proliferation assays are utilized to characterize or assess provided technologies. In some embodiments, on day 0, cells were seeded in cell culture media in a 96-well plate at desired density, typically at 1000 cells/well. On day 1, 10 mM compound stock solution was first serially diluted into DMSO, followed by diluting with cell culture media at two times of the final concentrations. Finally, compound-containing media were introduced to cell culture wells already having the same volume of cell culture media. Cells were incubated with compounds for desired days before lysed for CTG according to the manufacture instruction (G7570, Promega). Luminescent signal was obtained from a microplate reader (GloMax, Promega).

| Compound | IC50 |
| --- | --- |
| Ac-PL3-Asp-Ile-B5-Asp-3COOHF-Ala-Ala-Phe-sAla*3-PyrS2-Phe-34ClF-TriAzLys*3-NH2 [I-1864] | > 20 µM |
| Ac-PL3-Asp-Ile-B5-Asp-3COOHF-Aib-Ala-Phe-TriAzLys*3-PyrS2-Phe-34ClF-sCH2S*3-NH2 [I-1858] | ≤ 10 µM |
| Ac-PL3-Asp-Ile-B5-Asp-3COOHF-Aib-Ala-Phe-GlnR*3-PyrS2-Phe-34ClF-Lys*3-NH2 [I-1367] | ≤ 10 µM |
| Ac-PL3-Asp-Npg-B5-Asp-3COOHF-Aib-Ala-Phe-Lys*3-PyrS2-[2PyAc]2NH2F-BztA-GlnR*3-Ala-NH2 [I-1740] | ≤ 10 µM |
| Ac-PL3-Asp-Ile-B5-Asp-3COOHF-Aib-Ala-Phe-sCH2S*3-PyrS2-Phe-34ClF-TriAzOrn*3-NH2 [I-1862] | ≤ 10 µM |
| Ac-PL3-Asp-Ile-B5-Asp-3COOHF-Aib-Ala-Phe-Lys*3-PyrS2-Phe-34ClF-hGlnR*3-NH2 [I-1371] | > 20 µM |
| Ac-PL3-Asp-Chg-B5-Asp-3COOHF-Aib-Ala-Phe-Lys*3-PyrS2-Phe-34ClF-GlnR*3-NH2 [I-1048] | ≤ 10 µM |
| Ac-PL3-Asp-Ile-B5-Asp-3COOHF-Aib-Ala-Phe-Lys*3-PyrS2-Phe-3ClF-GlnR*3-NH2 [I-1598] | ≤ 10 µM |
| Ac-PL3-Asp-Ile-B5-Asp-3COOHF-Ala-Ala-Phe-Lys*3-PyrS2-3Thi-BztA-GlnR*3-Ala-NH2 [I-970] | ≤ 10 µM |
| Ac-PL3-Asp-Npg-B5-Asp-3COOHF-Aib-Ala-Phe-Lys*3-PyrS2-3Thi-BztA-GlnR*3-Ala-Ala-Lys-Ala-Ala-Ala-Lys-NH2 [I-1158] | ≤ 10 µM |
| Ac-PL3-Asp-Cha-B5-Asp-3COOHF-Ala-Ala-Phe-Lys*3-PyrS2-2ClF-BztA-GlnR*3-NH2 [I-1528] | ≤ 10 µM |
| Ac-PL3-Asp-Npg-B5-Asp-3COOHF-Aib-Ala-Phe-Lys*3-PyrS2-3Thi-BztA-GlnR*3-Ala-Ala-Leu-Leu-NH2 [I-806] | ≤ 10 µM |
| 124TriAc-PL3-Asp-Npg-B5-Asp-3COOHF-Aib-Ala-Phe-Lys*3-PyrS2-3Thi-BztA-GlnR*3-Ala-NH2 [I-1075] | > 20 µM |
| 2IAPAc-PL3-Asp-Npg-B5-Asp-3COOHF-Aib-Ala-Phe-Lys*3-PyrS2-3Thi-BztA-GlnR*3-Ala-NH2 [I-1064] | > 20 µM |
| Ac-PL3-Asp-Ile-B5-Asp-3COOHF-Phe-Ala-Phe-Lys*3-PyrS2-Phe-34MeF-GlnR*3-NH2 [I-1107] | ≤ 10 µM |
| Ac-PL3-Asp-Npg-B5-Asp-3COOHF-Aib-Ala-Phe-Lys*3-PyrS2-3Thi-BztA-hGlnR*3-NH2 [I-786] | ≤ 10 µM |
| Ac-PL3-Asp-DipA-B5-Asp-3COOHF-Ala-Ala-Phe-Lys*3-PyrS2-3Thi-34ClF-GlnR*3-Ala-Ala-Ala-[mPEG37]-Lys [I-1706] | ≤ 10 µM |
| Ac-PL3-Asp-Npg-B5-Asp-3COOHF-Aib-Ala-Phe-Lys*3-PyrS2-[15PyraPy]2NH2F-BztA-GlnR*3-Ala-NH2 [I-1752] | ≤ 10 µM |
| Ac-PL3-Asp-Npg-B5-Asp-3COOHF-Aib-Ala-Phe-Lys*3-PyrS2-Phe-34ClF-GlnR*3-Pro-NH2 [I-872] | ≤ 10 µM |
| Ac-PL3-Asp-DipA-B5-Asp-3COOHF-CyLeu-Ala-Phe-Lys*3-PyrS2-2F3MeF-BztA-GlnR*3-Val-NH2 [I-1774] | ≤ 10 µM |

| Compound | IC50 |
| --- | --- |
| Ac-PL3-Asp-DipA-B5-Asp-3COOHF-Ala-Ala-Phe-Lys*3-PyrS2-3Thi-34ClF-GlnR*3-Ala-Ala-[Oct-dPEG2]-Lys-NH2-NH2 [I-1789] | ≤ 10 µM |
| Ac-PL3-Asp-DipA-B5-Asp-3COOHF-CyLeu-Ala-Phe-Lys*3-PyrS2-2F3MeF-34ClF-GlnR*3-Val-NH2 [I-1773] | ≤ 10 µM |
| Ac-PL3-Asp-DipA-B5-Asp-3COOHF-Aib-Ala-Phe-Lys*3-PyrS2-3Thi-34ClF-GlnR*3-NH2 [I-1108] | ≤ 10 µM |
| Ac-PL3-Asp-Chg-B5-Asp-3COOHF-CyLeu-Ala-Phe-Lys*3-PyrS2-Phe-34ClF-GlnR*3-NH2 [I-1056] | ≤ 10 µM |
| Ac-PL3-Asp-Ile-B5-Asp-3COOHF-Aib-Ala-Phe-hGlnR*3-PyrS2-Phe-34ClF-Lys*3-NH2 [I-1372] | ≤ 10 µM |
| Ac-PL3-Asp-Npg-B5-Asp-3COOHF-Aib-Ala-Phe-Lys*3-PyrS2-3Thi-BztA-GlnR*3-[mPEG16]Lys-NH2 [I-1183] | ≤ 10 µM |
| CC(=O)N1CCC[C@@]1(C)C(=O)N[C@@H](CC(=O)O)C(=O)N[C@H](C(=O)N[C@]1(C)CCCCCCCCOC(=O)N2CC[C@@]3(C2)NC(=O)[C@H](CCCCNC(=O)CC[C@@H](C(=O)N[C@@H](C)C(N)=O)NC(=O)[C@H](Cc2csc4ccccc24)NC(=O)[C@H](Cc2ccsc2)NC3=O)NC(=O)[C@H](Cc2ccccc2)NC(=O)[C@H](C)NC(=O)C(C)(C)NC(=O)[C@H](Cc2cccc(C(=O)O)c2)NC(=O)[C@H](CC(=O)O)NC1=O)C(C)C (relative stereo) [I-237, Ac-MePro-Asp-Val-R5-Asp-3COOHF-Aib-Ala-Phe-Lys*3-PyrS2-3Thi-BztA-GlnR*3-Ala-NH2] | > 20 µM |
| Ac-PL3-Asp-Chg-B5-Asp-3COOHF-Ala-Ala-Phe-Lys*3-PyrS2-2ClF-BztA-GlnR*3-NH2 [I-1531] | ≤ 10 µM |
| Ac-PL3-Asp-Npg-B5-Asp-3COOHF-Aib-Ala-Phe-Lys*3-PyrS2-3Thi-BztA-GlnR*3-dPro-NH2 [I-720] | ≤ 10 µM |
| Ac-PL3-Asp-DipA-B5-Asp-3COOHF-Ala-Ala-Phe-Lys*3-PyrS2-3Thi-34ClF-GlnR*3-Ala-Ala-[Ac-dPEG2]-Lys-NH2-NH2 [I-1787] | ≤ 10 µM |
| Ac-PL3-Asp-DipA-B5-aThr-3COOHF-nLeu-Ala-Phe-Lys*3-PyrS2-3Thi-34ClF-GlnR*3-NH2 [I-1639] | ≤ 10 µM |
| Ac-PL3-Asp-Ile-B5-Asp-3COOHF-Aib-Ala-Phe-1MeK*3-PyrS2-Phe-34ClF-GlnR*3-NH2 [I-1369] | ≤ 10 µM |
| Ac-PL3-Asp-DipA-B5-Asp-3COOHF-nLeu-Ala-Phe-Lys*3-PyrS2-3Thi-BztA-GlnR*3-Ala-NH2 [I-986] | ≤ 10 µM |
| Ac-PL3-Asp-Npg-B5-Asp-3COOHF-Aib-Ala-Phe-Lys*3-PyrS2-3Thi-BztA-GlnR*3-Ala-Ala-Lys-Leu-Pro-Val-nLeu-NH2 [I-815] | ≤ 10 µM |
| Ac-PL3-Asp-Ile-B5-Asp-3COOHF-CyLeu-Ala-Phe-Lys*3-PyrS2-Phe-34ClF-GlnR*3-NH2 [I-1052] | ≤ 10 µM |
| CC(=O)N1CCC[C@]12CC=CCCCC1(CCCC=CCCCOC(=O)N3CC[C@@]4(C3)NC(=O)[C@H](CCCCNC(=O)CC[C@@H](C(=O)N[C@@H](C)C(N)=O)NC(=O)[C@H](Cc3csc5ccccc35)NC(=O)[C@H](Cc3ccncc3)NC4=O)NC(=O)[C@H](Cc3ccccc3)NC(=O)[C@H](C)NC(=O)C(C)(C)NC(=O)[C@H](Cc3cccc(C(=O)O)c3)NC(=O)[C@H](CC(=O)O)NC1=O)NC(=O)[C@H](CC(C)(C)C)NC(=O)[C@H](CC(=O)O)NC2=O (relative stereo) [I-301, Ac-PL3-Asp-Npg-B5-Asp-3COOHF-Aib-Ala-Phe-Lys*3-PyrS2-4PyrA-BztA-GlnR*3-Ala-NH2] | > 20 µM |
| Ac-PL3-Asp-Npg-B5-Asp-3COOHF-Aib-Ala-Phe-Lys*3-PyrS2-hCypA-34ClF-GlnR*3-Val-Glu-Ala-NH2 [I-1349] | ≤ 10 µM |
| Ac-PL3-Asp-DipA-B5-Asp-3COOHF-CyLeu-Ala-Phe-Lys*3-PyrS2-3Thi-34ClF-GlnR*3-Ala-NH2 [I-1118] | ≤ 10 µM |
| Ac-PL3-Asp-Npg-B5-Asp-3COOHF-Aib-Ala-Phe-Lys*3-PyrS2-3Thi-BztA-GlnR*3-Ala-Ala-Arg-Ala-Ala-Ala-Arg-NH2 [I-1157] | ≤ 10 µM |
